Experimental data as given in publication PMC10133546, “Simultaneous determination of multiple components in rat plasma by UHPLC-sMRM for pharmacokinetic studies after oral administration of Qingjin Yiqi Granules” (Frontiers in Pharmacology, 2023).

What was measured:
[1] = Stability of the working solution (4°C for 1 month); assay type: physicochemical
[2] = Stability of analytes in rat plasma (auto-sampler, freeze-thaw, room temperature, long-term); conditions: for Autosampler for 24 h Accuracy (%): autosampler 24 h; for Room temperature for 24 h Accuracy (%): room temperature 24 h; for Freeze thaw cycles Accuracy (%): three freeze-thaw cycles

Working solution Accuracy (%) ([1]; 1.56 ng/mL) | Working solution Accuracy (%) ([1]; 12.5 ng/mL) | Room temperature for 24 h Accuracy (%) ([2]; 1.56 ng/mL) | Freeze thaw cycles Accuracy (%) ([2]; 1.56 ng/mL) | −80°C for 1month Accuracy (%) ([2]; 1.56 ng/mL, −80°C 1 month) | SMILES | Working solution Accuracy (%) ([1]; 500 ng/mL) | Autosampler for 24 h Accuracy (%) ([2]; 1.56 ng/mL) | Autosampler for 24 h Accuracy (%) ([2]; 12.5 ng/mL) | Freeze thaw cycles Accuracy (%) ([2]; 12.5 ng/mL) | −80°C for 1month Accuracy (%) ([2]; 12.5 ng/mL, −80°C 1 month) | Autosampler for 24 h Accuracy (%) ([2]; 100 ng/mL) | Room temperature for 24 h Accuracy (%) ([2]; 100 ng/mL) | Freeze thaw cycles Accuracy (%) ([2]; 100 ng/mL) | −80°C for 1month Accuracy (%) ([2]; 100 ng/mL, −80°C 1 month) | Autosampler for 24 h Accuracy (%) ([2]; 500 ng/mL) | Room temperature for 24 h Accuracy (%) ([2]; 500 ng/mL) | Freeze thaw cycles Accuracy (%) ([2]; 500 ng/mL) | −80°C for 1month Accuracy (%) ([2]; 500 ng/mL, −80°C 1 month) | Room temperature for 24 h Accuracy (%) ([2]; 12.5 ng/mL) | Working solution Accuracy (%) ([1]; 100 ng/mL) | other results
90.5 | 100.0 | 92.4 | 84.5 | 83.9 | COc1c2c(cc3oc(CO)cc(=O)c13)O[C@H](C(C)(C)O)C2 [cimifugin] | 86.7 | 102.0 | 91.1 | 92.0 | 96.3 | 100.0 | 98.0 | 95.7 | 99.6 | 102.0 | 98.6 | 93.2 | 95.2 | – | – | –
83.8 | 105.0 | 95.0 | 91.5 | 86.6 | C[C@]1(OC(=O)/C=C/c2ccccc2)C[C@@H](O)[C@]2(O)C=CO[C@@H](O[C@@H]3O[C@H](CO)[C@@H](O)[C@H](O)[C@H]3O)[C@@H]21 [harpagoside] | 88.5 | 105.0 | 101.0 | 98.1 | – | 93.8 | 100.0 | 93.2 | – | – | 95.7 | 95.1 | – | 108.0 | – | –
– | 91.6 | – | – | – | O.Oc1cc(O)c2c(c1)O[C@H](c1ccc(O)c(O)c1)[C@@H](O)C2 [catechin] | 100.0 | – | – | – | – | – | – | – | – | – | – | – | – | – | 97.4 | Working solution Accuracy (%) ([1]; 50 ng/mL): 106.0%
– | – | – | – | – | COc1ccc(-c2oc3c(CC=C(C)C)c(O[C@@H]4O[C@H](CO)[C@@H](O)[C@H](O)[C@H]4O)cc(O)c3c(=O)c2O[C@@H]2O[C@@H](C)[C@H](O)[C@@H](O)[C@H]2O)cc1 [icariin (IS)] | – | – | – | – | – | – | – | – | – | – | – | – | – | – | – | Working solution Accuracy (%) ([1]; concentration 100 ng/mL): 94.8%
– | – | – | – | – | CC(C)(O[C@@H]1O[C@H](CO)[C@@H](O)[C@H](O)[C@H]1O)[C@@H]1CC[C@](O)(CO)[C@H]2CC(=O)[C@@](C)(O)[C@@H]2C1 [atractyloside A] | 97.2 | – | – | – | – | 94.4 | 104.0 | – | 96.2 | 103.0 | 91.2 | – | 92.2 | – | 104.0 | Working solution Accuracy (%) ([1]; 50 ng/mL): 88.5%; Working solution Accuracy (%) ([1]; 200 ng/mL): 87.0%; Autosampler for 24 h Accuracy (%) ([2]; 50 ng/mL): 107.0%; Room temperature for 24 h Accuracy (%) ([2]; 50 ng/mL): 97.6%; Freeze thaw cycles Accuracy (%) ([2]; 50 ng/mL): 84.6%; −80°C for 1month Accuracy (%) ([2]; 50 ng/mL, −80°C 1 month): 89.7%; Autosampler for 24 h Accuracy (%) ([2]; 200 ng/mL): 91.5%; Room temperature for 24 h Accuracy (%) ([2]; 200 ng/mL): 89.9%; Freeze thaw cycles Accuracy (%) ([2]; 200 ng/mL): 97.0%; −80°C for 1month Accuracy (%) ([2]; 200 ng/mL, −80°C 1 month): 93.4%
– | – | – | – | – | CC(=O)O[C@H]1[C@H](O[C@H]2CC[C@]34C[C@]35CC[C@]3(C)[C@@H]([C@@]6(C)CC[C@@H](C(C)(C)O)O6)[C@@H](O)C[C@@]3(C)[C@@H]5C[C@H](O[C@@H]3O[C@H](CO)[C@@H](O)[C@H](O)[C@H]3O)[C@H]4C2(C)C)OC[C@@H](O)[C@@H]1O [astragaloside II(IS)] | – | – | – | – | – | – | – | – | – | – | – | – | – | – | – | Working solution Accuracy (%) ([1]; concentration 100 ng/mL): 96.7%; Autosampler for 24 h Accuracy (%) ([2]; concentration 100 ng/mL): 105.0%; −80°C for 1month Accuracy (%) ([2]; −80°C for 1 month, concentration 100 ng/mL): 115.0%
84.3 | 87.5 | 98.6 | 95.6 | 111.0 | COc1ccc(-c2coc3cc(O[C@@H]4O[C@H](CO)[C@@H](O)[C@H](O)[C@H]4O)ccc3c2=O)cc1 [ononin] | 91.3 | – | 95.3 | 108.0 | 92.2 | 94.4 | 86.9 | 99.0 | – | 104.0 | 93.2 | – | 98.2 | 109.0 | 104.0 | –
– | – | – | – | – | CC(C)=CCC[C@](C)(O)[C@H]1CC[C@]2(C)[C@@H]1[C@H](O)C[C@@H]1[C@@]3(C)CC[C@H](O)C(C)(C)[C@@H]3[C@@H](O[C@@H]3O[C@H](CO)[C@@H](O)[C@H](O)[C@H]3O)C[C@]12C [ginsenoside Rh1] | – | – | – | – | – | 90.8 | 96.5 | 100.0 | 93.5 | – | – | – | – | – | 95.1 | Working solution Accuracy (%) ([1]; 50 ng/mL): 106.0%; Autosampler for 24 h Accuracy (%) ([2]; 50 ng/mL): 86.5%; Room temperature for 24 h Accuracy (%) ([2]; 50 ng/mL): 100.0%; −80°C for 1month Accuracy (%) ([2]; 50 ng/mL, −80°C 1 month): 107.0%; Autosampler for 24 h Accuracy (%) ([2]; concentration 200 ng/mL): 96.5%; Autosampler for 24 h Accuracy (%) ([2]; concentration 500 ng/mL): 108.0%; Room temperature for 24 h Accuracy (%) ([2]; concentration 500 ng/mL): 98.7%; Freeze thaw cycles Accuracy (%) ([2]; concentration 500 ng/mL): 94.1%; −80°C for 1month Accuracy (%) ([2]; −80°C for 1 month, concentration 500 ng/mL): 114.0%
– | – | – | – | – | O=c1cc(-c2ccccc2)oc2cc(O)c(O)c(O)c12 [baicalein] | – | – | 97.0 | 97.4 | 99.7 | 92.4 | – | 98.2 | 95.5 | 93.2 | 91.0 | 94.0 | 104.0 | 91.4 | – | Autosampler for 24 h Accuracy (%) ([2]; 50 ng/mL): 92.3%; Room temperature for 24 h Accuracy (%) ([2]; 50 ng/mL): 85.5%; −80°C for 1month Accuracy (%) ([2]; 50 ng/mL, −80°C 1 month): 90.6%

SMILES | Working solution Accuracy (%) ([1]; 1.56 ng/mL) | Working solution Accuracy (%) ([1]; 12.5 ng/mL) | Room temperature for 24 h Accuracy (%) ([2]; 1.56 ng/mL) | Freeze thaw cycles Accuracy (%) ([2]; 1.56 ng/mL) | −80°C for 1month Accuracy (%) ([2]; 1.56 ng/mL, −80°C 1 month) | Working solution Accuracy (%) ([1]; 500 ng/mL) | Autosampler for 24 h Accuracy (%) ([2]; 1.56 ng/mL) | Autosampler for 24 h Accuracy (%) ([2]; 12.5 ng/mL) | Freeze thaw cycles Accuracy (%) ([2]; 12.5 ng/mL) | −80°C for 1month Accuracy (%) ([2]; 12.5 ng/mL, −80°C 1 month) | Autosampler for 24 h Accuracy (%) ([2]; 100 ng/mL) | Room temperature for 24 h Accuracy (%) ([2]; 100 ng/mL) | Freeze thaw cycles Accuracy (%) ([2]; 100 ng/mL) | −80°C for 1month Accuracy (%) ([2]; 100 ng/mL, −80°C 1 month) | Autosampler for 24 h Accuracy (%) ([2]; 500 ng/mL) | Room temperature for 24 h Accuracy (%) ([2]; 500 ng/mL) | Freeze thaw cycles Accuracy (%) ([2]; 500 ng/mL) | −80°C for 1month Accuracy (%) ([2]; 500 ng/mL, −80°C 1 month) | Room temperature for 24 h Accuracy (%) ([2]; 12.5 ng/mL) | Working solution Accuracy (%) ([1]; 100 ng/mL) | other results
O=C(/C=C/c1ccc(O[C@@H]2O[C@H](CO)[C@@H](O)[C@H](O)[C@H]2O)cc1)c1ccc(O)cc1O [isoliquiritin] | 106.0 | 110.0 | 88.9 | 95.5 | 83.8 | 93.3 | 99.3 | 108.0 | 90.9 | – | 107.0 | 96.6 | 94.5 | 106.0 | 96.3 | 96.7 | 91.6 | 95.0 | 87.5 | – | –
O=c1c(O[C@@H]2O[C@H](CO)[C@H](O)[C@H](O)[C@H]2O)c(-c2ccc(O)c(O)c2)oc2cc(O)cc(O)c12 [hyperoside] | – | 92.1 | 91.6 | 97.6 | 106.0 | 95.0 | 111.0 | 101.0 | 98.4 | 100.0 | 90.5 | 95.4 | 93.5 | 88.8 | 95.8 | 99.1 | 95.3 | – | – | 91.2 | –
CC(C)=CCC[C@](C)(O)[C@H]1CC[C@]2(C)[C@@H]1[C@H](O)C[C@@H]1[C@@]3(C)CC[C@H](O)C(C)(C)[C@@H]3[C@@H](O[C@@H]3O[C@H](CO)[C@@H](O)[C@H](O)[C@H]3O[C@@H]3O[C@H](CO)[C@@H](O)[C@H](O)[C@H]3O)C[C@]12C [ginsenoside Rf] | – | 91.9 | – | – | – | 102.0 | – | 112.0 | 97.2 | 97.1 | 88.2 | 96.8 | 89.7 | – | – | 113.0 | – | 112.0 | 96.1 | 110.0 | Working solution Accuracy (%) ([1]; 50 ng/mL): 94.9%; Autosampler for 24 h Accuracy (%) ([2]; 50 ng/mL): 98.9%; Freeze thaw cycles Accuracy (%) ([2]; 50 ng/mL): 88.0%; −80°C for 1month Accuracy (%) ([2]; 50 ng/mL, −80°C 1 month): 89.6%
